Read-outs that look alike come from different tables or passages of the source.
Experiments:
Swiss mice = assay: Oral toxicity (mortality) in the mouse, Table 1; format: in vivo; details: 14 days, 20160 min
Protocol: (§1) The mortality percentages caused by the products of the present invention administered orally to Swiss mice are shown in Table 1. The animals, free of specific pathological organism were housed in an air conditioned room from 24 to 48 hours before the start of the experiments. They were divided up into lots of 5 males and 5 females. With the animals unfed for 24 hours, the substances were administered intragastrically in a base of 6% gum arabic in a volume equal to 0.1 ml for 10 g of animal weight. The mortality was recorded at 14 days.
(§2) % of mortality as a function of the dose

[1] = Oral toxicity (mortality) in the mouse, Table 1; format: in vivo; details: mouse, in vivo, po, Swiss mice, 14 days
Protocol: as §1, §2

[2] = system: number of escapes the animal made in 5 minutes; assay: Escape test, Table 3; format: in vivo, mouse; details: oral, mouse, 5 minutes
Text: The products of the invention were always administered orally in 6% gum base.
The notation NS signifies that the difference between the results noted for the product and the results noted for the excipient alone is not significant at the threshold 0.05 according to the Student t Test.

[3] = system: trembling induced by oxotremorine; assay: Antagonism of trembling induced by oxotremorine, Table 7; format: in vivo; details: oral, read-out: % of inhibition of trembling induced by oxotremorine
Text: (§3) The psychotropic profile of the present invention products has been characterized with the animals in numerous tests some of whose results are shown hereinafter. The products of the invention were always administered orally in 6% gum base.
(§4) Certain tests made it possible to show antidepressive activities. These are tests of antagonism to the effects of reserpine, oxotremorine (according to Everett G. M. et al, Science, 1956, 124, 79 and Levy J. et al, Therapie 1965, 20, 265) and to despair (according to Porsolt P. D. et al, Eur. J. Pharmacol., 1978, 47, 379-91).
% of inhibition of trembling induced by
oxotremorine as a function of the dose
administered expressed in mg/kg

phenylbenzoquinone (PBQ) = assay: Analgesic activity using phenylbenzoquinone (PBQ) as noxious agent, Table 2; format: in vivo, male Swiss mouse; details: for inhibition in vivo at 100 mg/kg / inhibition in vivo at 200 mg/kg / inhibition in vivo at 50 mg/kg: Mus musculus
Protocol: The analgesic activity was determined with the male Swiss mouse using phenylbenzoquinone (PBQ) (a variation of the method of Siegmund et al, Proc. Soc. Exp. Med., […], 95, 729-31) as the noxious agent. Twenty-eightminutes after having administered the test products in a suspension in a 6% gum base, the PBQ solution was injected. The mice were then observed ca. 5 mn. for the next five minutes.
% of analgesic activity as a function of
the dose expressed in mg/kg

[4] = system: ptosis induced by reserpine; assay: Antagonism of ptosis induced by reserpine, Table 6; format: in vivo; details: oral, read-out: % of inhibition of ptosis induced by reserpine
Text: as §3, §4
% of inhibition of ptosis induced by reserpine
as a function of the dose administered orally

[5] = system: number of displacements of the animal; assay: Four plates test (anxiolytic activity), Table 5; format: in vivo; details: oral, mouse
Text: as §3
A certain number of products manifest an anxiolytic activity evidenced in the test with the four plates with the mouse (Table 5).
% of increase in the number of displacements of the
animal as a function of the dose expressed in mg/kg

[6] = 5 min, read-out: % of activity (variation of the number of escapes)
[7] = 100 mg/kg, male Swiss mouse, PBQ, read-out: % of analgesic activity
[8] = 200 mg/kg, male Swiss mouse, PBQ, read-out: % of analgesic activity
[9] = 5 min, 100 mg/kg, read-out: % of activity (variation of the number of escapes)
[10] = 50 mg/kg, male Swiss mouse, PBQ, read-out: % of analgesic activity
[11] = read-out: % of analgesic activity, 100 mg/kg, male Swiss mouse, PBQ

CN(C)CCc1cc2c(cc1N=Cc1cccnc1)OCO2 [COR 01 201, 6-dimethylaminoethyl N-(pyridylidene-3)-1,3-benzodioxole-5-ylamine]
% of mortality (Swiss mice; 1000 mg/kg): 10%
mortality at 336 h ([1]; 2000 mg/kg): 30%

2-(2-N,N-dimethylamino-1-methylethyl)-N-pyridylidene-3 aniline [COR 01 213]
% of activity (variation of the number of escapes) ([2]; 100 mg/kg): -20%

CN1CCN(CCc2ccccc2N=Cc2cccnc2)CC1 [COR 01 205]
change in vivo at 50 mg/kg [3]: -30%
change in vivo at 100 mg/kg [3]: -30%
change in vivo at 200 mg/kg [3]: -40%
change in vivo at 200 mg/kg [2, 6]: -34%
mortality at 336 h ([1]; 1000 mg/kg): 0%
mortality at 336 h ([1]; 1500 mg/kg): 10%
mortality at 336 h ([1]; 2000 mg/kg): 10%
inhibition in vivo at 100 mg/kg (phenylbenzoquinone (PBQ); [7]): 10%
inhibition in vivo at 200 mg/kg (phenylbenzoquinone (PBQ); [8]): 36%
change in vivo at 50 mg/kg ([4]; 50 mg/kg): -31%
change in vivo at 100 mg/kg [4]: -25%
change in vivo at 200 mg/kg ([4]; 200 mg/kg): -31%

C(=Nc1cc2c(cc1CCN1CCOCC1)OCO2)c1cccnc1 [COR 01 204]
change in vivo at 50 mg/kg [3]: -30%
change in vivo at 100 mg/kg [3]: -20%
change in vivo at 200 mg/kg [3]: -30%
change in vivo at 5 mg/kg ([2]; 5 min, 5 mg/kg, read-out: % of activity (variation of the number of escapes)): -28%
change in vivo at 25 mg/kg ([2]; 5 min, 25 mg/kg, read-out: % of activity (variation of the number of escapes)): -31%
change in vivo at 50 mg/kg [2, 6]: -24%
change in vivo at 75 mg/kg ([2]; 5 min, 75 mg/kg, read-out: % of activity (variation of the number of escapes)): -20%
change in vivo at 100 mg/kg [2, 9]: -15%
change in vivo at 200 mg/kg [2, 6]: -24%
mortality at 336 h ([1]; 1500 mg/kg): 0%
mortality at 336 h ([1]; 2000 mg/kg): 10%
inhibition in vivo at 50 mg/kg (phenylbenzoquinone (PBQ); [10]): 0%
inhibition in vivo at 100 mg/kg (phenylbenzoquinone (PBQ); [7]): 45%
inhibition in vivo at 200 mg/kg (phenylbenzoquinone (PBQ); [8]): 42%

Cc1ccc(C=Nc2cc3c(cc2CCN(C)C)OCO3)s1 [COR 01 169]
mortality at 336 h ([1]; 750 mg/kg): 50%
mortality at 336 h ([1]; 1000 mg/kg): 20%
mortality at 336 h ([1]; 1500 mg/kg): 80%
inhibition in vivo at 50 mg/kg (phenylbenzoquinone (PBQ); read-out: % of analgesic activity, 50 mg/kg, male Swiss mouse, PBQ): 7%
inhibition in vivo at 100 mg/kg (phenylbenzoquinone (PBQ); [11]): 43%

C(=Nc1cc2c(cc1CCN1CCOCC1)OCO2)c1cccs1 [COR 01 180]
% of increase in the number of displacements of the animal ([5]; 25 mg/kg): +69%
% of increase in the number of displacements of the animal ([5]; 50 mg/kg): +88%
% of increase in the number of displacements of the animal ([5]; 75 mg/kg): +35%
change in vivo at 50 mg/kg [3]: -22%
change in vivo at 100 mg/kg [3]: -44%
change in vivo at 200 mg/kg [3]: -44%
change in vivo at 50 mg/kg [2, 6]: -21%
change in vivo at 100 mg/kg [2, 9]: -37%
change in vivo at 200 mg/kg [2, 6]: -75%
mortality at 336 h ([1]; 500 mg/kg): 0%
mortality at 336 h ([1]; 1000 mg/kg): 70%
inhibition in vivo at 50 mg/kg (phenylbenzoquinone (PBQ); [10]): 18%
inhibition in vivo at 100 mg/kg (phenylbenzoquinone (PBQ); [7]): 26%
inhibition in vivo at 200 mg/kg (phenylbenzoquinone (PBQ); [8]): 34%
change in vivo at 2.5 mg/kg ([4]; 2.5 mg/kg): -18%
change in vivo at 5 mg/kg ([4]; 5 mg/kg): -34%
change in vivo at 10 mg/kg ([4]; 10 mg/kg): -26%
change in vivo at 25 mg/kg [4]: -20%

CC(=O)Oc1ccccc1C(=O)O [Acetylsalicyclic acid, reference compound]
inhibition in vivo at 100 mg/kg (phenylbenzoquinone (PBQ); [11]): 55%
inhibition in vivo at 200 mg/kg (phenylbenzoquinone (PBQ); read-out: % of analgesic activity, 200 mg/kg, male Swiss mouse, PBQ): 61%

C(=Cc1ccccc1)C=Nc1cc2c(cc1CCN1CCCC1)OCO2 [COR 01 200]
% of increase in the number of displacements of the animal ([5]; 5 mg/kg): +112%
% of increase in the number of displacements of the animal ([5]; 10 mg/kg): +180%
% of increase in the number of displacements of the animal ([5]; 20 mg/kg): +292%
% of increase in the number of displacements of the animal ([5]; 25 mg/kg): +142%
% of increase in the number of displacements of the animal ([5]; 50 mg/kg): +84%
change in vivo at 10 mg/kg ([2]; 5 min, 10 mg/kg, read-out: % of activity (variation of the number of escapes)): 25%
change in vivo at 50 mg/kg [2, 6]: 38%
mortality at 336 h ([1]; 750 mg/kg): 0%
mortality at 336 h ([1]; 1000 mg/kg): 10%
mortality at 336 h ([1]; 1500 mg/kg): 70%
change in vivo at 25 mg/kg [4]: -28%
change in vivo at 100 mg/kg [4]: -24%

C(=Nc1cc2c(cc1CCN1CCCC1)OCO2)c1cccnc1 [COR 01 186]
% of mortality (Swiss mice; 1000 mg/kg): 40%
mortality at 336 h ([1]; 750 mg/kg): 0%
mortality at 336 h ([1]; 1500 mg/kg): 50%

CN(C)CCc1cc2c(cc1N=Cc1cccs1)OCO2 [COR 01 171]
% of mortality (Swiss mice; 150 mg/kg): 20%
% of mortality (Swiss mice; 250 mg/kg): 80%
% of mortality (Swiss mice; 500 mg/kg): 90%
% of analgesic activity (phenylbenzoquinone (PBQ); 50 mg/kg, male Swiss mouse, PBQ): 51%
